{"source": "patent US20110217715A1", "about": "“GENE EXPRESSION IN DUCHENNE MUSCULAR DYSTROPHY” (CHILDREN'S HOSPITAL MEDICAL CENTER, priority 2008, published 2011)", "test_system": "mRNA expression in peripheral blood of individuals with DMD", "assay": "Whole-blood gene expression microarray: DMD administered deflazacort vs DMD administered prednisone", "assay_type": "in vivo, human", "protocol": "Fifteen ml of blood was collected from each individual into 6 PAXgene® Vacutainer® tubes (PreAnalytiX, Germany) by antecubital fossa venipuncture. PAXgene® tubes contain a proprietary reagent that immediately stabilizes RNA, thus reducing RNA degradation and minimizing gene expression changes following phlebotomy. The tubes were then inverted 20 times, then remained undisturbed for 2 h at room temperature (about 19° C. to about 22° C.), and then stored at -70° C. until processed. Total RNA was isolated using the Paxgene® blood RNA kit (PreAnalytiX, Germany) according to the manufacturers instructions. The RNA isolated is from all cells in whole blood. Typical yields of total RNA isolated from about 7.5 ml of human whole blood were between 10 μg RNA and 40 μg RNA. RNA quality and purity was analyzed by spectrophotometry using the Nanodrop ND-1000, and RNA integrity was analyzed using the Agilent 2100 Bioanalyzer. […] Sample labeling, hybridization to chips, and image scanning were performed using standard Affymetrix protocols. For each whole blood sample from control individuals and individuals with DMD, total RNA was labeled using the One-Cycle Target Labeling protocol and hybridized to the arrays. […] Double-stranded cDNA synthesis, biotin-labeled cRNA synthesis, and cRNA fragmentation were performed according to the Affymetrix GeneChip Eukaryotic Expression Analysis protocol. The labeled, fragmented cRNA (15 μg) was hybridized at 45° C. overnight. After hybridization, the array was washed and stained. The arrays were scanned with an argon-ion laser at λ=570 nm, with a resolution of 3 μm/pixel (Affymetrix, Inc.). After scanning the array, the raw probe level values for each probe were saved in Affymetrix.cel files. […] Statistical analyses, including t-test analyses, unsupervised hierarchical clustering, and principal component analyses were conducted using Genespring 7.2 software ([…]® 7, Silicon Genetics, Redwood City Calif.). […] Corrections for multiple comparisons used a Benjamini-Hochberg False Discovery Rate (FDR) of 0.05, disclosed in Tang et al., J Cereb Blood Flow Metab 26 (2006) 1089, which is expressly incorporated by reference herein in its entirety. […] Sample processing and array hybridization, probe-level data analysis, and statistical analysis were identical to Example 1.", "data": [{"smiles": "CC(=O)OCC(=O)[C@@]12N=C(C)O[C@@H]1C[C@H]1[C@@H]3CCC4=CC(=O)C=C[C@]4(C)[C@H]3[C@@H](O)C[C@@]12C", "note": "[deflazacort]", "values": [{"measurement": "p-value (t-test, deflazacort vs prednisone)", "setting": "deflazacort vs. prednisone, NM_004862, Nucleic Acid No. 2094", "result": 0.0123}, {"measurement": "p-value (t-test, deflazacort vs. prednisone)", "setting": "deflazacort vs. prednisone, NM_005306, Nucleic Acid No. 2036", "result": 0.00696}, {"measurement": "p-value (t-test, deflazacort vs. prednisone)", "setting": "deflazacort vs. prednisone, NM_005345, Nucleic Acid No. 275", "result": 0.0354}, {"measurement": "p-value", "setting": "deflazacort vs. prednisone, NM_005461, Nucleic Acid No. 1310", "result": 0.0317}, {"measurement": "p-value", "setting": "deflazacort vs. prednisone, NM_005502, Nucleic Acid No. 1893", "result": 0.00709}, {"measurement": "p-value (t-test, deflazacort vs prednisone)", "setting": "deflazacort vs. prednisone, NM_005569, Nucleic Acid No. 2093", "result": 0.0261}, {"measurement": "p-value (t-test, deflazacort vs prednisone)", "setting": "deflazacort vs. prednisone, NM_005574, Nucleic Acid No. 2095", "result": 0.0476}, {"measurement": "p-value", "setting": "deflazacort vs. prednisone, NM_005720, Nucleic Acid No. 1912", "result": 0.0485}, {"measurement": "p-value", "setting": "deflazacort vs. prednisone, NM_005890, Nucleic Acid No. 2024", "result": 0.0113}, {"measurement": "p-value (t-test, deflazacort vs. prednisone)", "setting": "deflazacort vs. prednisone, NM_006018, Nucleic Acid No. 2035", "result": 0.000507}, {"measurement": "p-value (t-test, deflazacort vs. prednisone)", "setting": "deflazacort vs. prednisone, NM_006332, Nucleic Acid No. 2055", "result": 0.0414}, {"measurement": "p-value", "setting": "deflazacort vs. prednisone, NM_006854, Nucleic Acid No. 2078", "result": 0.0129}, {"measurement": "p-value (t-test, deflazacort vs prednisone)", "setting": "deflazacort vs. prednisone, NM_006863, Nucleic Acid No. 2092", "result": 0.00957}, {"measurement": "p-value (t-test, deflazacort vs. prednisone)", "setting": "deflazacort vs. prednisone, NM_014179, Nucleic Acid No. 2051", "result": 0.0407}, {"measurement": "p-value (t-test, deflazacort vs. prednisone)", "setting": "deflazacort vs. prednisone, NM_014339, Nucleic Acid No. 2058", "result": 0.0463}, {"measurement": "p-value (t-test, deflazacort vs prednisone)", "setting": "deflazacort vs. prednisone, NM_014656, Nucleic Acid No. 2079", "result": 0.00329}, {"measurement": "p-value", "setting": "deflazacort vs. prednisone, NM_018690, Nucleic Acid No. 1907", "result": 0.00658}, {"measurement": "p-value", "setting": "deflazacort vs. prednisone, NM_019043, Nucleic Acid No. 1040", "result": 0.0288}, {"measurement": "p-value (t-test, deflazacort vs. prednisone)", "setting": "deflazacort vs. prednisone, NM_020179, Nucleic Acid No. 2016", "result": 0.0196}, {"measurement": "p-value (t-test, deflazacort vs. prednisone)", "setting": "deflazacort vs. prednisone, NM_020386, Nucleic Acid No. 2046", "result": 0.0129}, {"measurement": "p-value", "setting": "deflazacort vs. prednisone, NM_152641, Nucleic Acid No. 1576", "result": 0.0457}, {"measurement": "p-value (t-test, deflazacort vs. prednisone)", "setting": "deflazacort vs. prednisone, R38084, Nucleic Acid No. 2026", "result": 0.0133}, {"measurement": "p-value", "setting": "deflazacort vs. prednisone, S72848, Nucleic Acid No. 1686", "result": 0.0226}, {"measurement": "p-value (t-test, deflazacort vs prednisone)", "setting": "deflazacort vs. prednisone, T85248, Nucleic Acid No. 1311", "result": 0.0383}, {"measurement": "p-value", "setting": "deflazacort vs. prednisone, U48734, Nucleic Acid No. 1898", "result": 0.0349}, {"measurement": "p-value (t-test, deflazacort vs. prednisone)", "setting": "deflazacort vs. prednisone, U65590, Nucleic Acid No. 2061", "result": 0.00419}, {"measurement": "p-value", "setting": "deflazacort vs. prednisone, U70064, Nucleic Acid No. 414", "result": 0.0255}, {"measurement": "p-value (t-test, deflazacort vs. prednisone)", "setting": "deflazacort vs. prednisone, U81501, Nucleic Acid No. 2021", "result": 0.0425}, {"measurement": "p-value (t-test, deflazacort vs prednisone)", "setting": "deflazacort vs. prednisone, U93240, Nucleic Acid No. 2086", "result": 0.0114}, {"measurement": "p-value", "setting": "deflazacort vs. prednisone, U97075, Nucleic Acid No. 1949", "result": 0.0264}, {"measurement": "p-value (t-test, deflazacort vs. prednisone)", "setting": "deflazacort vs. prednisone, W27419, Nucleic Acid No. 2052", "result": 0.0306}, {"measurement": "p-value (t-test, deflazacort vs. prednisone)", "setting": "deflazacort vs. prednisone, W93728, Nucleic Acid No. 1590", "result": 0.0103}, {"measurement": "p-value", "setting": "deflazacort vs. prednisone, W95007, Nucleic Acid No. 1896", "result": 0.0111}, {"measurement": "p-value (t-test, deflazacort vs. prednisone)", "setting": "deflazacort vs. prednisone, X51757, Nucleic Acid No. 2050", "result": 0.0352}, {"measurement": "p-value", "setting": "gene M-RIP, Genbank BF515158, Nucleic Acid No. 2128", "result": 0.0466}, {"measurement": "p-value", "setting": "gene MLKL, Genbank AA706818, Nucleic Acid No. 2125", "result": 0.031}, {"measurement": "p-value", "setting": "gene MLL3, Genbank AI057455, Nucleic Acid No. 2126", "result": 0.0474}, {"measurement": "p-value", "setting": "gene MLLT2, Genbank AA703523, Nucleic Acid No. 2127", "result": 0.0149}, {"measurement": "p-value", "setting": "gene MLSTD1, Genbank NM_018099, Nucleic Acid No. 1848", "result": 0.0331}, {"measurement": "p-value", "setting": "gene MS4A7, Genbank AF237916, Nucleic Acid No. 2129", "result": 0.0291}, {"measurement": "p-value", "setting": "gene MTF1, Genbank NM_005955, Nucleic Acid No. 2130", "result": "5.84E−05"}, {"measurement": "p-value", "setting": "gene MX2, Genbank NM_002463, Nucleic Acid No. 2131", "result": 0.0283}, {"measurement": "p-value", "setting": "gene MYADM, Genbank BE908995, Nucleic Acid No. 2132", "result": 0.0206}, {"measurement": "p-value", "setting": "gene MYLIP, Genbank AW292746, Nucleic Acid No. 2133", "result": 0.00321}, {"measurement": "p-value", "setting": "gene MYO1F, Genbank BF740152, Nucleic Acid No. 2134", "result": 0.0266}, {"measurement": "p-value", "setting": "gene N4BP1, Genbank AB014515, Nucleic Acid No. 2135", "result": 0.0291}, {"measurement": "p-value", "setting": "gene NCF2, Genbank BC001606, Nucleic Acid No. 2136", "result": 0.0348}, {"measurement": "p-value", "setting": "gene NCOA1, Genbank BF576458, Nucleic Acid No. 2137", "result": 0.00399}, {"measurement": "p-value", "setting": "gene NCOA6, Genbank AF128458, Nucleic Acid No. 926", "result": 0.0221}, {"measurement": "p-value", "setting": "gene NDE1, Genbank BF973292, Nucleic Acid No. 2138", "result": 0.024}, {"measurement": "p-value", "setting": "gene NDE1, Genbank NM_017668, Nucleic Acid No. 2139", "result": 0.0358}, {"measurement": "p-value", "setting": "gene NFIC, Genbank AW134798, Nucleic Acid No. 2140", "result": 0.0141}, {"measurement": "p-value", "setting": "gene NKTR, Genbank AI880383, Nucleic Acid No. 2141", "result": 0.0222}, {"measurement": "p-value", "setting": "gene NOTCH2, Genbank AA291203, Nucleic Acid No. 2142", "result": 0.00739}, {"measurement": "p-value", "setting": "gene NOTCH2, Genbank AF308601, Nucleic Acid No. 1046", "result": 0.0265}, {"measurement": "p-value", "setting": "gene NOTCH2NL, Genbank AW516297, Nucleic Acid No. 2143", "result": 0.0362}, {"measurement": "p-value", "setting": "gene NSF, Genbank AK025172, Nucleic Acid No. 2144", "result": 0.0411}, {"measurement": "p-value", "setting": "gene OLIG1, Genbank AL355743, Nucleic Acid No. 1399", "result": 0.00583}, {"measurement": "p-value", "setting": "gene OSTF1, Genbank NM_012383, Nucleic Acid No. 2145", "result": 0.0203}, {"measurement": "p-value", "setting": "gene PACSIN2, Genbank NM_007229, Nucleic Acid No. 2146", "result": 0.0409}, {"measurement": "p-value", "setting": "gene PAPD4, Genbank AW104325, Nucleic Acid No. 2147", "result": 0.00878}, {"measurement": "p-value", "setting": "gene PARP9, Genbank AI738416, Nucleic Acid No. 2148", "result": 0.0394}, {"measurement": "p-value", "setting": "gene PARVG, Genbank AL355092, Nucleic Acid No. 2149", "result": 0.0293}, {"measurement": "p-value", "setting": "gene PB1, Genbank H79538, Nucleic Acid No. 2150", "result": 0.0371}, {"measurement": "p-value", "setting": "gene PBX2, Genbank BE397715, Nucleic Acid No. 2151", "result": 0.0221}, {"measurement": "p-value", "setting": "gene PCBP2, Genbank AW025150, Nucleic Acid No. 2152", "result": 0.0394}, {"measurement": "p-value", "setting": "gene PDLIM5, Genbank NM_006457, Nucleic Acid No. 2153", "result": 0.0238}]}]}
